{"source": "patent US20250387388A1", "about": "“COMPOUND AS TRK INHIBITOR AND/OR RET INHIBITOR AND USE THEREOF” (Medinno Pharmaceutical Technology (Zhuhai) Co., Ltd., priority 2022, published 2025)", "key": {"[1]": {"tested_on": "external hemorrhoids in rats", "experiment": "External hemorrhoid model in rats (acetic acid)", "assay_type": "in vivo, SD rats", "text": "• (1) Blank control group (7 rats) • (2) Hemorrhoid model group (10 rats) • (3) Hemorrhoid model group+positive control drug (Mayinglong Hemorrhoid Ointment) group (8 rats) • (4) Hemorrhoid model group+vehicle treatment (Gel excipient) (8 rats) • (5) Hemorrhoids model group+0.1% MDI-1228 gel preparation group (8 rats) • (6) Hemorrhoids model group+0.3% MDI-1228 gel preparation group (8 rats) • (7) Hemorrhoids model group+1% MDI-1228 gel preparation group (8 rats) • (8) Hemorrhoids model group+3% MDI-1228 gel preparation group (8 rats) • Experimental environment: Temperature 20° C.-26° C., humidity 40%-70%\nApart from the normal control group, all groups were treated by first disinfecting the perianal skin. A 75% acetic acid solution was prepared and injected subcutaneously in a scattered pattern around the anus of each rat at a dose of 0.05 ml.\nThe recipe and preparation method for 1% MDI-1228 gel were as follows:\nThe control group and model group received no treatment (no therapy). Administration begined 24 hours after the model induction was successful. Group 3) was administrated with Mayinglong Hemorrhoid Ointment (7.5 g/Kg), three times, 10 min each time; Group 4) was administrated with a blank gel forming agent (1 g/Kg) around the anus; Groups 5)-8) were administrated with different concentrations of MDI-1228 compound gel preparation (1 g/Kg) around the anus, twice daily, 10 min each time, followed by covering with plastic wrap and fixing with tape to prevent the drug from falling off and affecting efficacy. After 6 hours, the dressing was removed, and the application site was cleaned with normal saline. The administration was continued for 11 days.\nObserve the healing of the ulcer site on days 3, 5, 7, 9, and 11 of administration, and assess the ulcer score (scoring criteria: ulcer exudate present=1 point; minimal ulcer exudate=2 points; scab present, nearly healed=3 points; completely healed=4 points).\nOn an 11-day administration, animals were euthanized by inhalation of excess carbon dioxide, and perianal rectal tissue was taken for HE staining, and serum was taken for ELISA detection.\nTissue samples from animal Rectal were excised, fixed in 10% neutral formalin buffer solution, dehydrated, embedded in paraffin, and sectioned and HE stained for observation of rectal histopathological morphology changes. The reagents and instruments required for HE staining included: Hematoxylin staining solution (AR11800-1, BOSTER); Eosin staining solution (AR11800-2, BOSTER); Ultra-clean advanced mounting medium (YZB, BASO); Scott's blueing solution (G1865, Solarbio), etc. Medication refrigerator (BYC-310, Shandong Bokai Biotech); Microscope (CX41 OLYMPUS); Microtome (BQ-318D, Berne); Electric heating blast drying oven (DHG-9070A, Hengke Scientific Instrument Co., Ltd.). The taken tissue was rinsed with running water for several hours, dehydrated through a series of ethanol solutions (70%, 80%, 90%), and then treated with a mixture of pure alcohol and xylene at a ratio of 1:1 for 15 minutes, followed by xylene I for 15 minutes and xylene II for 15 minutes (until transparent). The tissue was then placed in a mixture of xylene and paraffin at a ratio of 1:1 for 15 minutes, followed by immersion with paraffin I and paraffin 11 each for 50-60 minutes. The tissue was embedded in paraffin and sectioned, and the sections were dried, dewaxed and hydrated in distilled water. […]"}, "adipocytes": {"tested_on": "adipocytes", "experiment": "Lipolysis in vitro in adipocytes", "assay_type": "cell-based, C57BL/6 mouse", "conditions": "5 μM", "procedure": "Newly extracted neonatal C57BL/6 mouse skin fibroblasts (specific operational steps can be found in the literature: Cell Reports (2023)/doi: 10.1016/j.celrep.2023.112647) were plated and cultured in petri dishes until the cell density reached the highest and contact inhibition. Differentiation medium (DMEM+10% FBS+1× antibiotic; specific formula can be found in the literature: Cell Reports (2023)/doi: 10.1016/j.celrep.2023.112647) was then added to induce the generation of new adipocytes. […] The control group received an equal volume of DMSO. The transformation of adipocytes was observed using a Leica inverted phase contrast microscope."}}}
{"compound": "CCc1cc(O)c(F)cc1-c1ccc2c(-c3nc4c([nH]3)CN(C(=O)N3CC[C@H](O)C3)C4)n[nH]c2c1", "note": "[MDI-1228, (S)-(2-(6-(2-ethyl-5-fluoro-4-hydroxyphenyl)-1H-indazol-3-yl)-4,6-dihydropyrrolo[3,4-d]imidazol-5-(1H)-yl)(3-hydroxylpyrrolidin-1-yl)ketone]", "values": [{"measurement": "TNF-α expression in blood (ELISA)", "setting": "[1]; 0.1%, 0.3%, 1%, 3% MDI-1228 gel, positive control drug, vs. model group", "result": "could all downregulate the expression of TNF-α"}, {"measurement": "Perianal ulcer healing score", "setting": "[1]; 1% MDI-1228 gel 1 g/Kg twice daily, vs. model group", "result": "significant therapeutic effect after a 7-days administration"}, {"measurement": "Perianal rectal tissue HE staining pathological score", "setting": "[1]; 3% MDI-1228 gel", "result": "the best effect"}, {"measurement": "Perianal rectal tissue HE staining pathological score", "setting": "[1]; MDI-1228 gel at concentrations of 0.3% or more", "result": "more significant"}, {"measurement": "Alleviation and treatment of external hemorrhoids", "setting": "[1]; MDI-1228 gel preparations at different concentrations", "result": "can effectively alleviate and treat external hemorrhoids in rats"}, {"measurement": "Lipolysis of differentiated mature adipocytes (phase contrast images)", "setting": "adipocytes", "result": "promotes the lipolysis of adipocytes into smaller lipid droplets"}]}
